Experiment [1] deals with T1, Alpha-2C adrenergic receptor (Homo sapiens, UniProt P18825).
T1 sequence (P18825 whole entry): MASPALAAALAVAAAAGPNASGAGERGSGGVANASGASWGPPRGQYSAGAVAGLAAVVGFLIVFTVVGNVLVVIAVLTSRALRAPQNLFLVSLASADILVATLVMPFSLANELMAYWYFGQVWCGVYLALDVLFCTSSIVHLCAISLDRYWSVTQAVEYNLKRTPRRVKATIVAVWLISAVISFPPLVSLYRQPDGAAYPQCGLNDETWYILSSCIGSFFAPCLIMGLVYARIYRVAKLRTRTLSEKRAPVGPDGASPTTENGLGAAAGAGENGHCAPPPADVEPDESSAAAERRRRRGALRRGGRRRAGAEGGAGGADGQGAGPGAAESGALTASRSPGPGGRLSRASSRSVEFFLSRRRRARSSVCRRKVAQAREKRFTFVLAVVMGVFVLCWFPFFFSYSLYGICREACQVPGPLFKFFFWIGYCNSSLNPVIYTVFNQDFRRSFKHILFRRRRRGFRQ
Kind of experiment: DRUGMATRIX: Adrenergic Alpha-2C radioligand binding (ligand: [3H] MK-912). It counts as cell membranes, Sf9, Membrane. The settings on record: for Ki: read-out: Ki.

The target of experiment [2] is T2, Muscarinic acetylcholine receptor M5 (Homo sapiens, UniProt P08912). Note: in other assays of this panel Not Active means under 50% inhibition at 10 µM.
T2 sequence (P08912 whole entry): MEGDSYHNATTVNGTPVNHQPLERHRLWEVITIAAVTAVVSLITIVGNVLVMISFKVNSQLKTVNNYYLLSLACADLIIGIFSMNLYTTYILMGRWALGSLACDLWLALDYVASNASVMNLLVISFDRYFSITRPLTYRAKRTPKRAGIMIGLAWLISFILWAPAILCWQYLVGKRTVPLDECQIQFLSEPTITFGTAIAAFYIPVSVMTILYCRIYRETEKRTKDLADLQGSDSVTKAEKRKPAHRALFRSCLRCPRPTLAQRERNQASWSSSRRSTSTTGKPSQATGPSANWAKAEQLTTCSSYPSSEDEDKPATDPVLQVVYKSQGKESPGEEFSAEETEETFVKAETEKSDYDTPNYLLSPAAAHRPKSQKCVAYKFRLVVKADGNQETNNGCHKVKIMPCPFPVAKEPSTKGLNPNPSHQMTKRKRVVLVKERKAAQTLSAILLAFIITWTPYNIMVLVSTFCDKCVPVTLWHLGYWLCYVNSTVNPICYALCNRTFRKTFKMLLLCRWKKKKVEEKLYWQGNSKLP
The format is cell membranes, CHO-K1, Membrane.

The target of experiment [3] is Platelet-activating factor receptor (Homo sapiens, UniProt P25105). The format is tissue-based. Note: in other assays of this panel Not Active means under 50% inhibition at 10 µM.
The target in experiment [4] is Epidermal growth factor receptor (Homo sapiens, UniProt P00533). Kind of experiment: DRUGMATRIX: Protein Tyrosine Kinase, EGF Receptor enzyme inhibition (substrate: Poly(Glu:Tyr)). The format is cell-based, Insect cells. The settings on record: Not Active = under 50% inhibition at 10 µM.
Experiment [5] concerns the target T3, Receptor-type tyrosine-protein phosphatase C (Homo sapiens, UniProt P08575).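 Note: inhibition of CD45 enzyme activity measured using DiFMUP as substrate; in other assays of this panel Not Active means under 50% inhibition at 10 µM.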
T3 sequence (P08575 whole entry): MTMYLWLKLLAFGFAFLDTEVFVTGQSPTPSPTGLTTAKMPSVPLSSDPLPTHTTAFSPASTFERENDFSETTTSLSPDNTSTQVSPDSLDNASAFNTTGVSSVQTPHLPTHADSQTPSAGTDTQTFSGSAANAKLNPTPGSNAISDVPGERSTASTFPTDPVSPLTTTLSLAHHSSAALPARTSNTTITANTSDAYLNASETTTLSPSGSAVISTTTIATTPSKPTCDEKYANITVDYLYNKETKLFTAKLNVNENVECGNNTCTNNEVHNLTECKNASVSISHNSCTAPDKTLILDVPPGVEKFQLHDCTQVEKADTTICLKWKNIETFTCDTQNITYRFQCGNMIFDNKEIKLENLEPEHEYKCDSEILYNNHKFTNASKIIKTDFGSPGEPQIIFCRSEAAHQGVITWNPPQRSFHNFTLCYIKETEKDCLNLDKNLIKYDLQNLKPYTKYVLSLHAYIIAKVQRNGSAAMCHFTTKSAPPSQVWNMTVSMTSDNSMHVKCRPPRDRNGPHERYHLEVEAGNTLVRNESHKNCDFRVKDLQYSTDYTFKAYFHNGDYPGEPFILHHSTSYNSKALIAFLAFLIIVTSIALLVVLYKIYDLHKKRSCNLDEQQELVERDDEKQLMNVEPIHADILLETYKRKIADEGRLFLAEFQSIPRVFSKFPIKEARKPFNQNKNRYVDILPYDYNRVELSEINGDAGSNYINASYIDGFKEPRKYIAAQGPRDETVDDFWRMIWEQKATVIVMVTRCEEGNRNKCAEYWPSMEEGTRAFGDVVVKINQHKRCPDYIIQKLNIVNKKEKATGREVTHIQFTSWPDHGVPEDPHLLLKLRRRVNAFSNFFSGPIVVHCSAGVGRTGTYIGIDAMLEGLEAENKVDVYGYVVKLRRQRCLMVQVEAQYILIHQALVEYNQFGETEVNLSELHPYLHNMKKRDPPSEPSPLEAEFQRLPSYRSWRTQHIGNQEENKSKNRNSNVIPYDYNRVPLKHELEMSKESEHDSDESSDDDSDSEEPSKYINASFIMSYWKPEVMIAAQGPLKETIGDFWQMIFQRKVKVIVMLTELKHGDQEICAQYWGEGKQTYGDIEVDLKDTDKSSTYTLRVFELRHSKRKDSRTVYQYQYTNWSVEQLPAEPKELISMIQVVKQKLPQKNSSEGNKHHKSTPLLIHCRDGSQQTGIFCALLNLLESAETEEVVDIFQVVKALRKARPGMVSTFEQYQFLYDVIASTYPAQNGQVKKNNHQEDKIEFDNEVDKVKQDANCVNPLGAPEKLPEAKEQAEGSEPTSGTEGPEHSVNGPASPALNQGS
Also on record: species or system Escherichia coli.

Epidermal growth factor receptor, sequence (P00533 whole entry): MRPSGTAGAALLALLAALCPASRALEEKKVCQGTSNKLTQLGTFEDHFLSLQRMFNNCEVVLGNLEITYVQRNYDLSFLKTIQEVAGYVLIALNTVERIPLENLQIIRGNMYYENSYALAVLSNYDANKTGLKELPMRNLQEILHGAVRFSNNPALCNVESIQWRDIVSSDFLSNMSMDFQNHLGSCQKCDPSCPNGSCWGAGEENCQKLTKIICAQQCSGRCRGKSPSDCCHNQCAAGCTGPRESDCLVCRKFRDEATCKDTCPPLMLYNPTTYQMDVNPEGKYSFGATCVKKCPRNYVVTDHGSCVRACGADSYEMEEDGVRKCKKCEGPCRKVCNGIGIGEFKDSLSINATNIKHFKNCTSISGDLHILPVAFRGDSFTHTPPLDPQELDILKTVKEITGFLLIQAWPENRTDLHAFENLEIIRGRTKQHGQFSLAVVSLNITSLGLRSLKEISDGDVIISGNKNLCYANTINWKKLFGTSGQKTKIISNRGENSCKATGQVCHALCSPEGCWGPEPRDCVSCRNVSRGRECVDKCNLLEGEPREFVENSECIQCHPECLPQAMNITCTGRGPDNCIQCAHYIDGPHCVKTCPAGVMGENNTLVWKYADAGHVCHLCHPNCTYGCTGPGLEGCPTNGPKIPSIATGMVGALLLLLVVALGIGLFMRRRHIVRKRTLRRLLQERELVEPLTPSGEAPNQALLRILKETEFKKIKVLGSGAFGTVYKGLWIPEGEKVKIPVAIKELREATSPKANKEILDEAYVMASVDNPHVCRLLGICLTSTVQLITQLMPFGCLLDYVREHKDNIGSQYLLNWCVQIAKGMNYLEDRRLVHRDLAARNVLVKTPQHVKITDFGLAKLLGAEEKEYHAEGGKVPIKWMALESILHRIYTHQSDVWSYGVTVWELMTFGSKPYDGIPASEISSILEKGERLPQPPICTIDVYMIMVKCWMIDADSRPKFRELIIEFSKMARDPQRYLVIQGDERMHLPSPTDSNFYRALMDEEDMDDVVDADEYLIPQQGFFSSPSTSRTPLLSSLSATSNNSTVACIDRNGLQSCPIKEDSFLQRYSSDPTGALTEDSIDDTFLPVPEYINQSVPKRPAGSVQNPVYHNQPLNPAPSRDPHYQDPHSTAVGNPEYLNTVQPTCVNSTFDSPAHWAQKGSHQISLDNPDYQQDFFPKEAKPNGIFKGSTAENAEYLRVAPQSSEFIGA
Platelet-activating factor receptor, sequence (P25105 whole entry): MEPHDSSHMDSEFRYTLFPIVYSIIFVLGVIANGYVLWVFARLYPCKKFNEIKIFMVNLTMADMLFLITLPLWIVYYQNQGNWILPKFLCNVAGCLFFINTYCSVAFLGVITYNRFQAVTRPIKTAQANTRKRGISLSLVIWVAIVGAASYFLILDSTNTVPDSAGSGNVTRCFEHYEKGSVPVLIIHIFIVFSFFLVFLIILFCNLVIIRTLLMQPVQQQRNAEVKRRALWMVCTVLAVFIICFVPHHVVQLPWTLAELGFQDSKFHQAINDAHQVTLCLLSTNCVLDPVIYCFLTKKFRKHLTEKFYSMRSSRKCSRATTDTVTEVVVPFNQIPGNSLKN

Regarding `CC(C)C(=O)Nc1ccc([N+](=O)[O-])c(C(F)(F)F)c1` [FLUTAMIDE], the IC50 entry in experiment [1] (sf9), in experiment [2] (cho-k1), in experiment [3], in experiment [4] (insect cells) and in experiment [5] was “Not Active” throughout.
Consider `CCC1(c2ccc(N)cc2)CCC(=O)NC1=O` (stereo not drawn) [AMINOGLUTETHIMIDE], for which the IC50 entry in experiment [1] (sf9), in experiment [2] (cho-k1), in experiment [3], in experiment [4] (insect cells) and in experiment [5] was “Not Active” throughout.
As to `Cc1ccc2cc3c(ccc4ccccc43)c3c2c1CC3` [3-METHYLCHOLANTHRENE], the IC50 entry in experiment [1] (sf9), in experiment [2] (cho-k1), in experiment [3], in experiment [4] (insect cells) and in experiment [5] was “Not Active” each time.
As for `O=C(O)CCCc1ccc(N(CCCl)CCCl)cc1` [CHLORAMBUCIL], the half-maximal inhibitory concentration (IC50) entry in experiment [1] (sf9), in experiment [2] (cho-k1), in experiment [3], in experiment [4] (insect cells) and in experiment [5] was “Not Active” throughout.
`CC(NC(C)(C)C)C(=O)c1cccc(Cl)c1` (stereo not drawn) [BUPROPION]: the IC50 result in experiment [1] (sf9), in experiment [2] (cho-k1), in experiment [3], in experiment [4] (insect cells) and in experiment [5] was “Not Active” in each case.
`C=C(C)C1(O)OC(=O)C=C1OC` (stereo not drawn) [PENICILLIC ACID]: the IC50 entry in experiment [1] (sf9), in experiment [2] (cho-k1), in experiment [3], in experiment [4] (insect cells) and in experiment [5] was “Not Active” in each case.
In the case of `CCCC1O[C@@H]2C[C@H]3[C@@H]4CCC5=CC(=O)C=C[C@]5(C)[C@H]4[C@@H](O)C[C@]3(C)[C@]2(C(=O)CO)O1` (stereo partly drawn) [BUDESONIDE], the concentration for half-maximal inhibition (IC50) entry in experiment [1] (sf9), in experiment [2] (cho-k1), in experiment [3], in experiment [4] (insect cells) and in experiment [5] was “Not Active” each time.
For `COCCc1ccc(OCC(O)CNC(C)C)cc1` (stereo not drawn) [METOPROLOL], the IC50 result in experiment [1] (sf9), in experiment [2] (cho-k1), in experiment [3], in experiment [4] (insect cells) and in experiment [5] was “Not Active” throughout.
Consider `CC1CC(OC(=O)C(O)c2ccccc2)CC(C)(C)C1` (stereo not drawn) [CYCLANDELATE], for which the IC50 result in experiment [1] (sf9), in experiment [2] (cho-k1), in experiment [3], in experiment [4] (insect cells) and in experiment [5] was “Not Active” each time.
Turning to `C1CCC(C(CC2CCCCN2)C2CCCCC2)CC1` (stereo not drawn) [PERHEXILINE], the IC50 entry in experiment [1] (sf9) is “Not Active”; in experiment [2] (read-out: IC50) it was 1090 nM; in experiment [3], “Not Active”; in experiment [4] (read-out: IC50), 1490 nM; in experiment [5] it was “Not Active”. For the same molecule, the Ki in experiment [2] (read-out: Ki) was 785 nM.
On to `CC(C)[C@H]1C(=O)N2CCC[C@H]2[C@]2(O)O[C@](NC(=O)[C@@H]3C=C4c5cccc6[nH]cc(c56)C[C@H]4N(C)C3)(C(C)C)C(=O)N12` [ERGOCORNINE], for which the IC50 was 17 nM in experiment [1] (read-out: IC50); “Not Active” in experiment [2] (cho-k1); “Not Active” in experiment [3]; “Not Active” in experiment [4] (insect cells); “Not Active” in experiment [5]. In experiment [1], the Ki is 2.41 nM.
Turning to `CC(C)[C@@]1(NC(=O)[C@@H]2C[C@@H]3c4cccc5[nH]cc(c45)C[C@H]3N(C)C2)O[C@@]2(O)[C@@H]3CCCN3C(=O)[C@H](Cc3ccccc3)N2C1=O.CS(=O)(=O)O` [DIHYDROERGOCRISTINE MESYLATE], the 50% inhibitory concentration (IC50) was 8.65 nM in experiment [1] (read-out: IC50); “Not Active” in experiment [2] (cho-k1); “Not Active” in experiment [3]; “Not Active” in experiment [4] (insect cells); “Not Active” in experiment [5]. Further, in experiment [1], the Ki was 1.26 nM.
In the case of `C[C@]12CCC(=O)C=C1CC[C@@H]1[C@@H]2CC[C@@]2(C)[C@H]1CC[C@]2(C)O` [METHYLTESTOSTERONE], the IC50 result in experiment [1] (sf9), in experiment [2] (cho-k1), in experiment [3], in experiment [4] (insect cells) and in experiment [5] was “Not Active” throughout.

The record behind these values is ChEMBL document CHEMBL1909046, “DrugMatrix in vitro pharmacology data”.
